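Dose response: 5 concentrations. Exposure: 48 h. Format: 96-well plates. Endpoint: linear interpolation; highest concentration if not reached. GI50 marks 50% less growth.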 Activity calls are given as the source filed them. No stated cut-off is given here; in the data, active = GI50 up to about 1.1 µM and inactive = higher.
Experiments:
Test in all cases: growth of human tumour cells (NCI), 48 h
PC-3 = test system: PC-3
SN12C = test system: SN12C
SW-620 = test system: SW-620
SF-295 = test system: SF-295
RPMI-8226 = test system: RPMI-8226
COLO 205 = test system: COLO 205
HCT-116 = test system: HCT-116
SK-MEL-5 = test system: SK-MEL-5
OVCAR-5 = test system: OVCAR-5
OVCAR-4 = test system: OVCAR-4
KM-20L2 = test system: KM-20L2
OVCAR-3 = test system: OVCAR-3
786-0 = test system: 786-0
SF-539 = test system: SF-539
A498 = test system: A498
LXFL 529 = test system: LXFL 529
NCI/ADR-RES = test system: NCI/ADR-RES
HOP-92 = test system: HOP-92
UO-31 = test system: UO-31
MCF7 = test system: MCF7
NCI-H23 = test system: NCI-H23
HOP-18 = test system: HOP-18
HT-29 = test system: HT-29
OVCAR-8 = test system: OVCAR-8
Malme-3M = test system: Malme-3M
RXF 393 = test system: RXF 393
DU-145 = test system: DU-145
LOX IMVI = test system: LOX IMVI
NCI-H522 = test system: NCI-H522
K562 = test system: K562
EKVX = test system: EKVX
U-251 = test system: U-251
Hs-578T = test system: Hs-578T
MDA-MB-231 = test system: MDA-MB-231
ACHN = test system: ACHN
MOLT-4 = test system: MOLT-4
UACC-62 = test system: UACC-62
HCT-15 = test system: HCT-15
SR = test system: SR
TK-10 = test system: TK-10
SK-OV-3 = test system: SK-OV-3
KM12 = test system: KM12
A549 = test system: A549
SK-MEL-2 = test system: SK-MEL-2
IGROV-1 = test system: IGROV-1
HCC 2998 = test system: HCC 2998
SNB-78 = test system: SNB-78
NCI-H226 = test system: NCI-H226
HL-60 = test system: HL-60
HOP-62 = test system: HOP-62
NCI-H460 = test system: NCI-H460
M19-MEL = test system: M19-MEL
M14 = test system: M14
CCRF-CEM = test system: CCRF-CEM
SNB-19 = test system: SNB-19
DLD-1 = test system: DLD-1
MDA-N = test system: MDA-N
CAKI-1 = test system: CAKI-1
BT-549 = test system: BT-549
XF498 = test system: XF498
DMS-114 = test system: DMS-114
UACC-257 = test system: UACC-257
SF-268 = test system: SF-268
SNB-75 = test system: SNB-75
SK-MEL-28 = test system: SK-MEL-28
MDA-MB-435 = test system: MDA-MB-435
DMS-273 = test system: DMS-273

COc1ccc(/C=C2\CCC(CN(C)C)C2=O)cc1 (centres undefined)
GI50 (PC-3): 5.12 µM (inactive)
GI50 (SN12C): 5.83 µM (inactive)
GI50 (SW-620): 1.96 µM (inactive)
GI50 (SF-295): 17.9 µM (inactive)
GI50 (RPMI-8226): 0.832 µM (active)
GI50 (COLO 205): 3.42 µM (inactive)
GI50 (HCT-116): 2.29 µM (inactive)
GI50 (SK-MEL-5): 8.69 µM (inactive)
GI50 (OVCAR-5): 13.6 µM (inactive)
GI50 (OVCAR-4): 8.34 µM (inactive)
GI50 (KM-20L2): 17.1 µM (inactive)
GI50 (OVCAR-3): 4.12 µM (inactive)
GI50 (786-0): 1.65 µM (inactive)
GI50 (SF-539): 7.83 µM (inactive)
GI50 (A498): 15 µM (inactive)
GI50 (LXFL 529): 2.05 µM (inactive)
GI50 (NCI/ADR-RES): 2.36 µM (inactive)
GI50 (HOP-92): 6.1 µM (inactive)
GI50 (UO-31): 8.59 µM (inactive)
GI50 (MCF7): 1.95 µM (inactive)
GI50 (NCI-H23): 7.91 µM (inactive)
GI50 (HOP-18): 6.85 µM (inactive)
GI50 (HT-29): 3.5 µM (inactive)
GI50 (OVCAR-8): 3.24 µM (inactive)
GI50 (Malme-3M): 4.92 µM (inactive)
GI50 (RXF 393): 2.94 µM (inactive)
GI50 (DU-145): 2.94 µM (inactive)
GI50 (LOX IMVI): 1.93 µM (inactive)
GI50 (NCI-H522): 1.1 µM (active)
GI50 (K562): 1.6 µM (inactive)
GI50 (EKVX): 17.8 µM (inactive)
GI50 (U-251): 18.3 µM (inactive)
GI50 (Hs-578T): 3.82 µM (inactive)
GI50 (MDA-MB-231): 1.99 µM (inactive)
GI50 (ACHN): 9.77 µM (inactive)
GI50 (MOLT-4): 1.83 µM (inactive)
GI50 (UACC-62): 8.91 µM (inactive)
GI50 (HCT-15): 2.29 µM
GI50 (SR): 1.26 µM (inactive)
GI50 (TK-10): 5.98 µM (inactive)
GI50 (SK-OV-3): 17.6 µM (inactive)
GI50 (KM12): 8.26 µM (inactive)
GI50 (A549): 12.2 µM (inactive)
GI50 (SK-MEL-2): 7.87 µM (inactive)
GI50 (IGROV-1): 8.47 µM (inactive)
GI50 (HCC 2998): 8.13 µM (inactive)
GI50 (SNB-78): 13.6 µM (inactive)
GI50 (NCI-H226): 16.3 µM (inactive)
GI50 (HL-60): 1.02 µM (active)
GI50 (HOP-62): 12.2 µM (inactive)
GI50 (NCI-H460): 16.6 µM (inactive)
GI50 (M19-MEL): 8.71 µM (inactive)
GI50 (M14): 2.54 µM (inactive)
GI50 (CCRF-CEM): 2.26 µM (inactive)
GI50 (SNB-19): 10.3 µM (inactive)
GI50 (DLD-1): 3.62 µM (inactive)
GI50 (MDA-N): 3.44 µM (inactive)
GI50 (CAKI-1): 2.4 µM (inactive)
GI50 (BT-549): 3.26 µM (inactive)
GI50 (XF498): 4.21 µM (inactive)
GI50 (DMS-114): 5.98 µM (inactive)
GI50 (UACC-257): 3.75 µM (inactive)
GI50 (SF-268): 9.71 µM (inactive)
GI50 (SNB-75): 12.4 µM (inactive)
GI50 (SK-MEL-28): 5.75 µM (inactive)
GI50 (MDA-MB-435): 1.88 µM (inactive)

O=C(Nc1ccccc1)c1cccc([N+](=O)[O-])c1
GI50 (SN12C): > 100 µM (inactive)
GI50 (SW-620): > 100 µM (inactive)
GI50 (RPMI-8226): 39.9 µM (inactive)
GI50 (COLO 205): > 100 µM (inactive)
GI50 (HCT-116): > 100 µM (inactive)
GI50 (SK-MEL-5): > 100 µM (inactive)
GI50 (DMS-273): > 100 µM (inactive)
GI50 (KM-20L2): 37.5 µM (inactive)
GI50 (OVCAR-3): > 100 µM (inactive)
GI50 (786-0): > 100 µM (inactive)
GI50 (SF-539): > 100 µM (inactive)
GI50 (A498): > 100 µM (inactive)
GI50 (HOP-92): > 100 µM (inactive)
GI50 (HOP-18): > 100 µM (inactive)
GI50 (HT-29): > 100 µM (inactive)
GI50 (OVCAR-8): > 100 µM (inactive)
GI50 (Malme-3M): > 100 µM (inactive)
GI50 (K562): > 100 µM (inactive)
GI50 (EKVX): > 100 µM (inactive)
GI50 (U-251): > 100 µM (inactive)
GI50 (ACHN): > 100 µM (inactive)
GI50 (MOLT-4): 60.8 µM (inactive)
GI50 (UACC-62): > 100 µM (inactive)
GI50 (HCT-15): > 100 µM
GI50 (A549): > 100 µM (inactive)
GI50 (IGROV-1): > 100 µM (inactive)
GI50 (HCC 2998): > 100 µM (inactive)
GI50 (SNB-78): > 100 µM (inactive)
GI50 (HOP-62): > 100 µM (inactive)
GI50 (M19-MEL): > 100 µM (inactive)
GI50 (CCRF-CEM): > 100 µM (inactive)
GI50 (SNB-19): > 100 µM (inactive)
GI50 (CAKI-1): > 100 µM (inactive)
GI50 (XF498): > 100 µM (inactive)
GI50 (DMS-114): 92.9 µM (inactive)
GI50 (SF-268): > 100 µM (inactive)
GI50 (SNB-75): > 100 µM (inactive)
GI50 (SK-MEL-28): > 100 µM (inactive)

C=C1CCC2[C@@H](CCC3[C@]2(C)CCC[C@]3(C)C(=O)OC)C1CC=O (some centres undefined)
GI50 (SN12C): 18.2 µM (inactive)
GI50 (SW-620): 19.1 µM (inactive)
GI50 (COLO 205): 18.5 µM (inactive)
GI50 (HCT-116): 15.2 µM (inactive)
GI50 (SK-MEL-5): 19.6 µM (inactive)
GI50 (OVCAR-4): 17.4 µM (inactive)
GI50 (DMS-273): 20.9 µM (inactive)
GI50 (KM-20L2): 18.8 µM (inactive)
GI50 (OVCAR-3): 14.2 µM (inactive)
GI50 (786-0): 18.1 µM (inactive)
GI50 (SF-539): 16.9 µM (inactive)
GI50 (LXFL 529): 16 µM (inactive)
GI50 (HOP-92): 14.6 µM (inactive)
GI50 (NCI-H23): 18.6 µM (inactive)
GI50 (HOP-18): 15.6 µM (inactive)
GI50 (HT-29): 16.6 µM (inactive)
GI50 (OVCAR-8): 19.4 µM (inactive)
GI50 (Malme-3M): 19.1 µM (inactive)
GI50 (EKVX): 20.1 µM (inactive)
GI50 (ACHN): 15.9 µM (inactive)
GI50 (UACC-62): 15.2 µM (inactive)
GI50 (HCT-15): 19.9 µM
GI50 (SK-MEL-2): 18.9 µM (inactive)
GI50 (IGROV-1): 20.2 µM (inactive)
GI50 (SNB-78): 17.6 µM (inactive)
GI50 (NCI-H226): 17.9 µM (inactive)
GI50 (HL-60): 15.6 µM (inactive)
GI50 (NCI-H460): 15.3 µM (inactive)
GI50 (M19-MEL): 18.2 µM (inactive)
GI50 (M14): 16.5 µM (inactive)
GI50 (CCRF-CEM): 14 µM (inactive)
GI50 (DLD-1): 21.6 µM (inactive)
GI50 (XF498): 14.1 µM (inactive)
GI50 (DMS-114): 17.5 µM (inactive)
GI50 (UACC-257): 16.2 µM (inactive)
GI50 (SF-268): 18.2 µM (inactive)
GI50 (SK-MEL-28): 16.3 µM (inactive)

C=C1CCC2[C@@H](CCC3[C@]2(C)CCC[C@]3(C)C(=O)OC)[C@@H]1CC=O (some centres undefined)
GI50 (SN12C): 30.3 µM (inactive)
GI50 (SW-620): 17.6 µM (inactive)
GI50 (COLO 205): 36.9 µM (inactive)
GI50 (HCT-116): 16.7 µM (inactive)
GI50 (SK-MEL-5): 17 µM (inactive)
GI50 (OVCAR-4): 27.6 µM (inactive)
GI50 (DMS-273): 22.4 µM (inactive)
GI50 (KM-20L2): 27 µM (inactive)
GI50 (OVCAR-3): 20.5 µM (inactive)
GI50 (786-0): 36.1 µM (inactive)
GI50 (SF-539): 17.9 µM (inactive)
GI50 (LXFL 529): 31.9 µM (inactive)
GI50 (HOP-92): 20.2 µM (inactive)
GI50 (NCI-H23): 25.8 µM (inactive)
GI50 (HOP-18): 24.8 µM (inactive)
GI50 (HT-29): 28.1 µM (inactive)
GI50 (OVCAR-8): 23.6 µM (inactive)
GI50 (Malme-3M): 28.8 µM (inactive)
GI50 (EKVX): 35.1 µM (inactive)
GI50 (ACHN): 27.2 µM (inactive)
GI50 (UACC-62): 24.6 µM (inactive)
GI50 (HCT-15): 29.5 µM
GI50 (SK-MEL-2): 31.6 µM (inactive)
GI50 (IGROV-1): 35.8 µM (inactive)
GI50 (HCC 2998): 61.7 µM (inactive)
GI50 (SNB-78): 34.4 µM (inactive)
GI50 (NCI-H226): 27.7 µM (inactive)
GI50 (HL-60): 23.5 µM (inactive)
GI50 (NCI-H460): 20 µM (inactive)
GI50 (M19-MEL): 22.4 µM (inactive)
GI50 (M14): 19.4 µM (inactive)
GI50 (CCRF-CEM): 22.4 µM (inactive)
GI50 (DLD-1): 33.6 µM (inactive)
GI50 (XF498): 19.9 µM (inactive)
GI50 (DMS-114): 22 µM (inactive)
GI50 (UACC-257): 26.5 µM (inactive)
GI50 (SF-268): 34.6 µM (inactive)
GI50 (SK-MEL-28): 27.7 µM (inactive)
